{
  "source": "PubChem BioAssay AID1259407",
  "about": "(Chemical Carcinogenesis Research Information System (CCRIS), 2018)",
  "tested_on": "CCRIS mutagenicity, Ames/micronucleus/aberration tests",
  "assay": "CCRIS mutagenicity studies",
  "key": {"[1]": {"settings": "Test System: AMES SALMONELLA TYPHIMURIUM, Strain/Indicator: TA98, Metabolic Activation: NONE, Method: PREINCUBATION"}, "[2]": {"settings": "Test System: AMES SALMONELLA TYPHIMURIUM, Strain/Indicator: TA100, Metabolic Activation: NONE, Method: PREINCUBATION"}, "[3]": {"settings": "Test System: AMES SALMONELLA TYPHIMURIUM, Strain/Indicator: TA1537, Metabolic Activation: NONE, Method: PREINCUBATION"}, "[4]": {"settings": "Test System: AMES SALMONELLA TYPHIMURIUM, Strain/Indicator: TA98, Metabolic Activation: RAT LIVER S-9, PHENOBARBITAL AND BETA-NAPHTHOFLAVONE, Method: PREINCUBATION"}, "[5]": {"settings": "Test System: AMES SALMONELLA TYPHIMURIUM, Strain/Indicator: TA100, Metabolic Activation: RAT LIVER S-9, PHENOBARBITAL AND BETA-NAPHTHOFLAVONE, Method: PREINCUBATION"}, "[6]": {"settings": "Test System: AMES SALMONELLA TYPHIMURIUM, Strain/Indicator: TA1535, Metabolic Activation: NONE, Method: PREINCUBATION"}, "[7]": {"settings": "Test System: AMES SALMONELLA TYPHIMURIUM, Strain/Indicator: TA1535, Metabolic Activation: RAT LIVER S-9, PHENOBARBITAL AND BETA-NAPHTHOFLAVONE, Method: PREINCUBATION"}, "[8]": {"settings": "Test System: AMES SALMONELLA TYPHIMURIUM, Strain/Indicator: TA1537, Metabolic Activation: RAT LIVER S-9, PHENOBARBITAL AND BETA-NAPHTHOFLAVONE, Method: PREINCUBATION"}, "[9]": {"settings": "Test System: E.COLI, Strain/Indicator: WP2UVRA/PKM101, Metabolic Activation: NONE, Method: PREINCUBATION"}, "[10]": {"settings": "Test System: E.COLI, Strain/Indicator: WP2UVRA/PKM101, Metabolic Activation: RAT LIVER S-9, PHENOBARBITAL AND BETA-NAPHTHOFLAVONE, Method: PREINCUBATION"}, "[11]": {"settings": "Test System: AMES SALMONELLA TYPHIMURIUM, Strain/Indicator: TA98, Metabolic Activation: RAT, LIVER, S-9, AROCLOR 1254, Method: STANDARD PLATE"}, "[12]": {"settings": "Test System: AMES SALMONELLA TYPHIMURIUM, Strain/Indicator: TA100, Metabolic Activation: RAT, LIVER, S-9, AROCLOR 1254, Method: STANDARD PLATE"}},
  "note": "The source made the active and inactive calls. No rule for the calls is given here.",
  "data": [
    {"smiles": "O=C1c2ccccc2C(=O)c2c(O)cc(O)cc21", "values": [
      {"measurement": "mutagenic call", "setting": "[1]", "result": "inactive; negative"},
      {"measurement": "mutagenic call", "setting": "Test System: AMES SALMONELLA TYPHIMURIUM, Strain/Indicator: TA98, Metabolic Activation: RAT, LIVER, S-9, PCB, Method: PREINCUBATION", "result": "active; positive"},
      {"measurement": "mutagenic call", "setting": "[2]", "result": "inactive; negative"},
      {"measurement": "mutagenic call", "setting": "Test System: AMES SALMONELLA TYPHIMURIUM, Strain/Indicator: TA100, Metabolic Activation: RAT, LIVER, S-9, PCB, Method: PREINCUBATION", "result": "active; positive"},
      {"measurement": "mutagenic call", "setting": "[3]", "result": "active; positive"},
      {"measurement": "mutagenic call", "setting": "Test System: AMES SALMONELLA TYPHIMURIUM, Strain/Indicator: TA1537, Metabolic Activation: RAT, LIVER, S-9, Method: PREINCUBATION", "result": "active; positive"},
      {"measurement": "mutagenic call", "setting": "Test System: CHINESE HAMSTER V-79, Strain/Indicator: V-79/8-AZAGUANINE, Metabolic Activation: NONE, Method: STANDARD PLATE", "result": "active; positive"},
      {"measurement": "mutagenic call", "setting": "Test System: CHINESE HAMSTER V-79, Strain/Indicator: V-79/8-AZAGUANINE, Metabolic Activation: PRIMARY RAT HEPATOCYTES, Method: STANDARD PLATE", "result": "active; positive"},
      {"measurement": "mutagenic call", "setting": "Test System: UDS RODENT HEPATOCYTES, Strain/Indicator: THY INCORP (NON-S-PHASE), Metabolic Activation: NONE, Method: AUTORADIOGRAPHY", "result": "active; positive"}
    ]},
    {"smiles": "CCCCCCCCCCCCCO", "values": [
      {"measurement": "mutagenic call", "setting": "[1]", "result": "inactive; negative"},
      {"measurement": "mutagenic call", "setting": "[4]", "result": "inactive; negative"},
      {"measurement": "mutagenic call", "setting": "[2]", "result": "inactive; negative"},
      {"measurement": "mutagenic call", "setting": "[5]", "result": "inactive; negative"},
      {"measurement": "mutagenic call", "setting": "[6]", "result": "inactive; negative"},
      {"measurement": "mutagenic call", "setting": "[7]", "result": "inactive; negative"},
      {"measurement": "mutagenic call", "setting": "[3]", "result": "inactive; negative"},
      {"measurement": "mutagenic call", "setting": "[8]", "result": "inactive; negative"},
      {"measurement": "mutagenic call", "setting": "[9]", "result": "inactive; negative"},
      {"measurement": "mutagenic call", "setting": "[10]", "result": "inactive; negative"}
    ]},
    {"smiles": "O=C1OCCO1", "values": [
      {"measurement": "mutagenic call", "setting": "[1]", "result": "inactive; negative"},
      {"measurement": "mutagenic call", "setting": "[4]", "result": "inactive; negative"},
      {"measurement": "mutagenic call", "setting": "[2]", "result": "inactive; negative"},
      {"measurement": "mutagenic call", "setting": "[5]", "result": "inactive; negative"},
      {"measurement": "mutagenic call", "setting": "[6]", "result": "inactive; negative"},
      {"measurement": "mutagenic call", "setting": "[7]", "result": "inactive; negative"},
      {"measurement": "mutagenic call", "setting": "[3]", "result": "inactive; negative"},
      {"measurement": "mutagenic call", "setting": "[8]", "result": "inactive; negative"},
      {"measurement": "mutagenic call", "setting": "[9]", "result": "inactive; negative"},
      {"measurement": "mutagenic call", "setting": "[10]", "result": "inactive; negative"}
    ]},
    {"smiles": "O=c1c(Cl)c(Cl)cnn1S(=O)(=O)c1ccccc1", "values": [
      {"measurement": "mutagenic call", "setting": "Test System: AMES SALMONELLA TYPHIMURIUM, Strain/Indicator: TA98, Metabolic Activation: NONE, Method: STANDARD PLATE", "result": "inactive; negative"},
      {"measurement": "mutagenic call", "setting": "[11]", "result": "inactive; negative"},
      {"measurement": "mutagenic call", "setting": "Test System: AMES SALMONELLA TYPHIMURIUM, Strain/Indicator: TA100, Metabolic Activation: NONE, Method: STANDARD PLATE", "result": "inactive; negative"},
      {"measurement": "mutagenic call", "setting": "[12]", "result": "inactive; negative"},
      {"measurement": "mutagenic call", "setting": "Test System: AMES SALMONELLA TYPHIMURIUM, Strain/Indicator: TA1535, Metabolic Activation: NONE, Method: STANDARD PLATE", "result": "inactive; negative"},
      {"measurement": "mutagenic call", "setting": "Test System: AMES SALMONELLA TYPHIMURIUM, Strain/Indicator: TA1535, Metabolic Activation: RAT, LIVER, S-9, AROCLOR 1254, Method: STANDARD PLATE", "result": "inactive; negative"},
      {"measurement": "mutagenic call", "setting": "Test System: AMES SALMONELLA TYPHIMURIUM, Strain/Indicator: TA1537, Metabolic Activation: NONE, Method: STANDARD PLATE", "result": "inactive; negative"},
      {"measurement": "mutagenic call", "setting": "Test System: AMES SALMONELLA TYPHIMURIUM, Strain/Indicator: TA1537, Metabolic Activation: RAT, LIVER, S-9, AROCLOR 1254, Method: STANDARD PLATE", "result": "inactive; negative"}
    ]},
    {"smiles": "O=S(=O)(O)C1C(O)c2c(cc3ccc4cccc5ccc2c3c45)C(O)C1O", "note": "(stereo not given)", "values": [
      {"measurement": "mutagenic call", "setting": "[1]", "result": "inactive; negative"}
    ]},
    {"smiles": "c1ccc2c(c1)ccc1cc3cnccc3cc12", "values": [
      {"measurement": "mutagenic call", "setting": "[11]", "result": "active; positive"},
      {"measurement": "mutagenic call", "setting": "[12]", "result": "active; positive"}
    ]}
  ]
}
